Literature values as cited in PMC5641599 (Molecular Metabolism, 2017).
Read-outs that look alike come from different tables or passages of the source.

Experiments:
Settings in all cases: cited from earlier work
[1] = system: MC4R variants
[2] = system: MC4R variants; remark: listed apart in the source
[3] = system: MC4R variants; remark: listed apart in the source
[4] = system: MC4R variants; remark: listed apart in the source
[5] = ref Xiang Z, Biochemistry, 2006
[6] = COS-7 cell line, ref Brumm H, Obesity, 2012
[7] = ref Srinivasan S, J Clin Invest, 2004
[8] = ref Xiang Z, Biochemistry, 2010
[9] = ref Lubrano-Berthelier C, J Clin Endocrinol Metab, 2006
[10] = ref Rong R, Clin Endocrinol, 2006
[11] = COS-7 cell line, ref Hinney A, J Clin Endocrinol Metab, 2006
[12] = ref Fan ZC, J Cell Mol Med, 2009
[13] = COS-7 cell line, ref Hughes DA, Hum Genet, 2009
[14] = ref Wang ZQ, Biochim Biophys Acta, 2011
[15] = MC4R D126Y, ref Wang ZQ, Biochim Biophys Acta, 2011
[16] = MC4R D146N, ref Wang ZQ, Biochim Biophys Acta, 2011
[17] = MC4R F201L, ref Wang ZQ, Biochim Biophys Acta, 2011
[18] = MC4R G231V, ref Wang ZQ, Biochim Biophys Acta, 2011
[19] = MC4R I170del, ref Wang ZQ, Biochim Biophys Acta, 2011
[20] = MC4R I186V, ref Wang ZQ, Biochim Biophys Acta, 2011
[21] = MC4R I195S, ref Wang ZQ, Biochim Biophys Acta, 2011
[22] = MC4R P260Q, ref Wang ZQ, Biochim Biophys Acta, 2011
[23] = MC4R Q307X, ref Wang ZQ, Biochim Biophys Acta, 2011
[24] = MC4R T248A, ref Huang H, J Mol Endocrinol, 2012

Y287X
Cell surface expression [1, 5]: 30 % of WT
Cell surface expression ([1]; ref Yeo GS, Hum Mol Genet, 2003): 0 % of WT

Y35X (MVNSTHRGMHTSLHLWNRSSYRLHSNASESLGKG; nonsense Y35X; UniProt P32245 1-34, looked up, fragment)
Cell surface expression [1, 6]: 0 % of WT
Cell surface expression [1, 5]: 5 % of WT

MT-II
cAMP Emax - Ligand no.2 (% of WT) ([2]; MC4R A219V, ligand no.2 MT-II, ref Larsen LH, J Clin Endocrinol Metab, 2005): 34.0 % of WT
cAMP Emax - Ligand no.2 ([2]; MC4R S36Y, ref Larsen LH, J Clin Endocrinol Metab, 2005): 86.0 % of WT

R7H
Cell surface expression [1, 7]: 80 % of WT
Cell surface expression [1, 8]: 100 % of WT

R18C
Cell surface expression [1, 9]: 115 % of WT
Cell surface expression [1, 7]: 95 % of WT
Cell surface expression [1, 5]: 45 % of WT
Basal activity [3, 9]: 36 % of WT

Y35C
Cell surface expression [1, 10]: 100 % of WT
Basal activity [3, 10]: 172 % of WT

G34A
Cell surface expression ([1]; ref Moore BS, PLoS One, 2014): 85 % of WT

S30F
Cell surface expression ([1]; S30F variant alone, ref Lubrano-Berthelier C, Hum Mol Genet, 2003): 120 % of WT
Basal activity ([3]; COS-7 cell line, ref Hinney A, J Clin Endocrinol Metab, 2003): 140 % of WT

C40R
Cell surface expression [1, 10]: 100 % of WT
Basal activity ([3]; COS-7 cell line, ref Tarnow P, J Biol Chem, 2003): 112 % of WT
Basal activity [3, 10]: 157 % of WT

Y35X;D37V (MVNSTHRGMHTSLHLWNRSSYRLHSNASESLGKG; nonsense Y35X; D37V; UniProt P32245 1-34, looked up, fragment)
Cell surface expression [1, 9]: 0 % of WT
Basal activity [3, 9]: 10 % of WT

W16X (MVNSTHRGMHTSLHL; nonsense W16X; UniProt P32245 1-15, looked up, fragment)
Cell surface expression [1, 6]: 5 % of WT
Cell surface expression ([1]; HEK293 cell line, ref Bolze F, Pharmacogenomics J, 2013): 0 % of WT

D37G
Cell surface expression ([1]; ref Hughes DA, Hum Genet, 2009): 100 % of WT
Basal activity ([3]; ref Hughes DA, Hum Genet, 2009): 83 % of WT

S36Y
Cell surface expression [1, 8]: 90 % of WT

E61X (MVNSTHRGMHTSLHLWNRSSYRLHSNASESLGKGYSDGGCYEQLFVSPEVFVTLGVISLL; nonsense E61X; UniProt P32245 1-60, looked up, fragment)
Cell surface expression [1, 6]: 5 % of WT

G32E
Basal activity ([3]; limited data, ref Ahituv N, Am J Hum Genet, 2007): 70 % of WT

S30F/G252S
Cell surface expression ([1]; both variants on the same allele, ref Lubrano-Berthelier C, Hum Mol Genet, 2003): 60 % of WT
Cell surface expression ([1]; both variants on the same allele, ref Nijenhuis WA, J Biol Chem, 2003): 69 % of WT

R7C
Cell surface expression [1, 11]: 100 % of WT
Cell surface expression [1, 12]: 45 % of WT
Basal activity [3, 11]: 133 % of WT
Basal activity [3, 12]: 100 % of WT

R18L
Cell surface expression [1, 7]: 95 % of WT
Cell surface expression [1, 8]: 95 % of WT

S36T
Cell surface expression [1, 13]: 107 % of WT
Basal activity [3, 13]: 83 % of WT

C40Y
Cell surface expression [1, 13]: 49 % of WT
Basal activity [3, 13]: 108 % of WT

Q307X
Cell surface expression [1, 6]: 40 % of WT
Cell surface expression ([1]; ref Santoro N, BMC Med Genet, 2009): 31 % of WT
Cell surface expression [1, 14]: 20 % of WT
Basal activity [3, 14]: 20 % of WT

R18H
Cell surface expression [1, 9]: 150 % of WT
Cell surface expression [1, 7]: 95 % of WT
Cell surface expression [1, 8]: 85 % of WT
Basal activity [3, 9]: 46 % of WT

β-MSH
cAMP Emax - Ligand no.2 ([2]; MC4R C40Y, COS-7 cell line, ref Hughes DA, Hum Genet, 2009): 98.0 % of WT
cAMP Emax - Ligand no.2 (% of WT) ([2]; MC4R C271R, COS-7 cell line, ref Tarnow P, J Biol Chem, 2003): 22.5 % of WT
cAMP Emax - Ligand no.2 ([2]; MC4R D37G, ref Hughes DA, Hum Genet, 2009): 75.0 % of WT
cAMP Emax - Ligand no.2 (% of WT) [2, 15]: 0.0 % of WT
cAMP Emax - Ligand no.2 (% of WT) [2, 16]: 96.1 % of WT
cAMP Emax - Ligand no.2 (% of WT) [2, 17]: 100.0 % of WT
cAMP Emax - Ligand no.2 (% of WT) ([2]; MC4R F202L, COS-7 cell line, ref Hughes DA, Hum Genet, 2009): 79.0 % of WT
cAMP Emax - Ligand no.2 ([2]; MC4R F280AfsX12, ref Xiang Z, Biochemistry, 2006): 0.0 % of WT
cAMP Emax - Ligand no.2 (% of WT) ([2]; MC4R G181D, ref Xiang Z, Biochemistry, 2010): 0.0 % of WT
cAMP Emax - Ligand no.2 (% of WT) [2, 18]: 104.9 % of WT
cAMP Emax - Ligand no.2 (% of WT) ([2]; MC4R H158R, COS-7 cell line, ref Hinney A, J Clin Endocrinol Metab, 2006): 122.0 % of WT
cAMP Emax - Ligand no.2 (% of WT) ([2]; MC4R I125K, ref Xiang Z, Biochemistry, 2006): 0.0 % of WT
cAMP Emax - Ligand no.2 (% of WT) ([2]; MC4R I170V, COS-7 cell line, ref Hughes DA, Hum Genet, 2009): 97.0 % of WT
cAMP Emax - Ligand no.2 [2, 19]: 0.0 % of WT
cAMP Emax - Ligand no.2 (% of WT) [2, 20]: 65.8 % of WT
cAMP Emax - Ligand no.2 (% of WT) [2, 21]: 94.1 % of WT
cAMP Emax - Ligand no.2 ([2]; MC4R I251WfsX34, ref Xiang Z, Biochemistry, 2010): 0.0 % of WT
cAMP Emax - Ligand no.2 ([2]; MC4R L211MfsX6, ref Xiang Z, Biochemistry, 2006): 0.0 % of WT
cAMP Emax - Ligand no.2 (% of WT) ([2]; MC4R M200V, COS-7 cell line, ref Hinney A, J Clin Endocrinol Metab, 2006): 91.0 % of WT
cAMP Emax - Ligand no.2 (% of WT) [2, 22]: 20.0 % of WT
cAMP Emax - Ligand no.2 (% of WT) ([2]; MC4R Q156R, COS-7 cell line, ref Hinney A, J Clin Endocrinol Metab, 2006): 92.0 % of WT
cAMP Emax - Ligand no.2 ([2]; MC4R Q307X, ref Santoro N, BMC Med Genet, 2009): 0.0 % of WT
cAMP Emax - Ligand no.2 [2, 23]: 0.0 % of WT
cAMP Emax - Ligand no.2 ([2]; MC4R R7C, COS-7 cell line, ref Hinney A, J Clin Endocrinol Metab, 2006): 83.0 % of WT
cAMP Emax - Ligand no.2 (% of WT) ([2]; MC4R R236H, COS-7 cell line, ref Hinney A, J Clin Endocrinol Metab, 2006): 96.0 % of WT
cAMP Emax - Ligand no.2 ([2]; MC4R S36T, COS-7 cell line, ref Hughes DA, Hum Genet, 2009): 82.0 % of WT
cAMP Emax - Ligand no.2 (% of WT) ([2]; MC4R S136F, COS-7 cell line, ref Tarnow P, Obes Facts, 2008): 23.0 % of WT
cAMP Emax - Ligand no.2 (% of WT) ([2]; MC4R S191T, COS-7 cell line, ref Hughes DA, Hum Genet, 2009): 97.0 % of WT
cAMP Emax - Ligand no.2 (% of WT) ([2]; MC4R T162R, COS-7 cell line, ref Ochoa MC, Clin Endocrinol, 2007): 80.0 % of WT
cAMP Emax - Ligand no.2 (% of WT) [2, 24]: 79.5 % of WT
cAMP Emax - Ligand no.2 (% of WT) ([2]; MC4R V166I, COS-7 cell line, ref Hinney A, J Clin Endocrinol Metab, 2006): 105.0 % of WT
cAMP Emax - Ligand no.2 (% of WT) ([2]; MC4R V166I, COS-7 cell line, ref Hughes DA, Hum Genet, 2009): 105.0 % of WT
cAMP Emax - Ligand no.2 (% of WT) ([2]; MC4R W174C, ref Xiang Z, Biochemistry, 2010): 0.0 % of WT
cAMP Emax - Ligand no.2 ([2]; MC4R Y35X, ref Xiang Z, Biochemistry, 2006): 0.0 % of WT
Binding Bmax - Ligand no.2 (% of WT) [4, 15]: 0.0 % of WT
Binding Bmax - Ligand no.2 (% of WT) [4, 16]: 23.9 % of WT
Binding Bmax - Ligand no.2 (% of WT) [4, 17]: 116.0 % of WT
Binding Bmax (% of WT) ([4]; MC4R F280L, ref Wang ZQ, Biochim Biophys Acta, 2011): 57.4 % of WT
Binding Bmax - Ligand no.2 (% of WT) [4, 18]: 123.2 % of WT
Binding Bmax (% of WT) ([4]; MC4R H76R, ref Wang ZQ, Biochim Biophys Acta, 2011): 81.7 % of WT
Binding Bmax (% of WT) ([4]; MC4R I69R, ref Wang ZQ, Biochim Biophys Acta, 2011): 0.0 % of WT
Binding Bmax - Ligand no.2 [4, 19]: 0.0 % of WT
Binding Bmax - Ligand no.2 (% of WT) [4, 20]: 150.5 % of WT
Binding Bmax - Ligand no.2 (% of WT) [4, 21]: 71.2 % of WT
Binding Bmax (% of WT) ([4]; MC4R I289L, ref Wang ZQ, Biochim Biophys Acta, 2011): 127.4 % of WT
Binding Bmax (% of WT) ([4]; MC4R M79I, ref Wang ZQ, Biochim Biophys Acta, 2011): 98.2 % of WT
Binding Bmax - Ligand no.2 (% of WT) [4, 22]: 0.0 % of WT
Binding Bmax - Ligand no.2 [4, 23]: 0.0 % of WT
Binding Bmax (% of WT) ([4]; MC4R R305S, ref Wang ZQ, Biochim Biophys Acta, 2011): 128.1 % of WT
Binding Bmax (% of WT) ([4]; MC4R S94N, ref Wang ZQ, Biochim Biophys Acta, 2011): 41.0 % of WT
Binding Bmax - Ligand no.2 (% of WT) [4, 24]: 125.0 % of WT
Binding Bmax (% of WT) ([4]; MC4R Y332C, ref Wang ZQ, Biochim Biophys Acta, 2011): 129.6 % of WT
Binding Bmax (% of WT) ([4]; MC4R Y332H, ref Wang ZQ, Biochim Biophys Acta, 2011): 150.0 % of WT

B1: I170del (protein, UniProt P32245 1-332, looked up, variant I170*)
Melanocortin receptor 4: MVNSTHRGMHTSLHLWNRSSYRLHSNASESLGKGYSDGGCYEQLFVSPEVFVTLGVISLLENILVIVAIAKNKNLHSPMYFFICSLAVADMLVSVSNGSETIVITLLNSTDTDAQSFTVNIDNVIDSVICSSLLASICSLLSIAVDRYFTIFYALQYHNIMTVKRVGIISCIWAACTVSGILFIIYSDSSAVIICLITMFFTMLALMASLYVHMFLMARLHIKRIAVLPGTGAIRQGANMKGAITLTILIGVFVVCWAPFFLHLIFYISCPQNPYCVCFMSHFNLYLILIMCNSIIDPLIYALRSQELRKTFKEIICCYPLGGLCDLSSRY
Cell surface expression [1, 14]: 10 % of WT
Basal activity [3, 14]: 25 % of WT

B2: Y80X (protein, UniProt P32245 1-79, looked up, fragment)
chain: MVNSTHRGMHTSLHLWNRSSYRLHSNASESLGKGYSDGGCYEQLFVSPEVFVTLGVISLLENILVIVAIAKNKNLHSPM
modifications: nonsense Y80X
Cell surface expression [1, 9]: 0 % of WT
Basal activity [3, 9]: 10 % of WT
